Data set [1] deals with T1, HIV protease (Human immunodeficiency virus type 1 group M subtype B, UniProt P04585). Nature of the data set: HIV protease assay, inhibition of cleavage of acetyl-Thr-Ile-Met-Met-Gln-Arg-NH2 (HPLC). Format: biochemical, HIV-1.
For data set [2], the system named is CD4+ human lymphocyte cells (H9 cells). The note with it: preliminary.
Data set [3] concerns the target T1, HIV protease. Briefly: HIV protease assay, substrate cleavage (relative hydrolysis rates, Km, Vmax). Format: biochemical, HIV-1. The note with it: for Relative Rate: percent of standard substrate concentration cleaved in twenty minutes, relative to Ac-Thr-Ile-Met-Met-Gln-Arg-NH2 = 1.00.
Data set [4] concerns the target T1, HIV protease. The note with it: Darke et al. 1988, cited from earlier work.
Where [5] appears, read: affinities not fully characterized, classified by comparative inhibition studies, read-out: KI (affinity category).
Setting [6] is: in vitro inhibition of HIV protease, pH 6.5, 25°, read-out: KI.

Like-named read-outs stand apart in the source and are kept apart here. Numbered stars: 1 amine (or outer) side, 2 acyl side, 3 side chain; on linkers, the order of the positions; unused ones are H or OH. Square brackets hold non-standard residues; d marks the D form. Peptide text beside a SMILES is read from it. LeuΨ(CH2N)Pro = CC(C)C[C@@H](CN1CCC[C@H]1C(=O)[*:2])N[*:1]; X1 = O=C([C@@H]1CCCN1C[C@H](Cc1ccc(O)cc1)N[*:1])[*:2]; X2 = O=C([C@@H]1CCCN1C[C@H](Cc1ccccc1)N[*:1])[*:2]; X3 = CCCC[C@@H](CN(C)[C@@H](CCCC)C(=O)[*:2])N[*:1]; X4 = C[C@@H](CN1CCC[C@H]1C(=O)[*:2])N[*:1]

Here are results for 30 compounds from patent US5342922A, “Inhibitors of retroviral protease” (Washington University, priority 1989, dated 1994).

Usually Ki stands for the equilibrium dissociation constant of an inhibitor or competing ligand from its target. For `CCCC[C@@H](CN[C@@H](CCCC)C(=O)N[C@H](C(=O)N[C@H](C(N)=O)[C@@H](C)O)[C@@H](C)CC)NC(=O)[C@H](CCC(N)=O)NC(=O)[C@H](CCCNC(=N)N)NC(C)=O` [Ac--Arg--Gln--Nle-.PSI.[CH2 NH]--Nle--Ile--Thr--NH2], the Ki on HIV protease [1] (setting [5]) was in the range of 1 to 100 µM.
On the same count and under the same terms, as for `CCCC[C@@H](CN[C@@H](CCCC)C(=O)N[C@@H](CCC(N)=O)C(=O)N[C@@H](CCCNC(=N)N)C(N)=O)NC(=O)[C@@H](NC(=O)[C@H](NC(C)=O)[C@H](C)O)[C@@H](C)CC` [Ac--D--Thr--Ile--Nle-.PSI.[CH2 NH]--Nle--Gln--Arg--NH2], the figure is 1 to 100 µM.
Regarding `CC[C@H](C)[C@H](NC(=O)[C@@H]1CCCN1C[C@H](Cc1ccc(O)cc1)NC(=O)[C@H](CC(N)=O)NC(=O)[C@H](CCC(N)=O)NC(C)=O)C(=O)N[C@H](C(N)=O)C(C)C` [Ac--Gln--Asn--Tyr-.PSI.[CH2 N]--Pro--Ile--Val--NH2] (Ac-QN[X1]IV-NH2), on HIV protease [1] (setting [6]), the Ki was 17.2 µM. Further, the “toxicity as measured by cell count” value in data set [2] is listed as “no apparent toxicity”.
In the case of `CC(=O)NCC(=O)N[C@@H](CC(N)=O)C(=O)N[C@@H](Cc1ccc(O)cc1)CN1CCC[C@H]1C(=O)N[C@H](C(=O)N[C@@H](CCC(N)=O)C(N)=O)C(C)C` [Ac--Gly--Asn--Tyr-.PSI.[CH2 N]--Pro--Val--Gln--NH2] (Ac-GN[X1]VQ-NH2), the Ki on HIV protease [1] (setting [5]) lay within 1 to 100 µM.
Same read-out and setting: the value for `CC(=O)N[C@@H](CC(C)C)C(=O)N[C@@H](C)C(=O)N[C@@H](C)CN1CCC[C@H]1C(=O)N[C@@H](CCC(N)=O)C(=O)N[C@@H](Cc1ccccc1)C(N)=O` [Ac--Leu--Ala--Ala-.PSI.[CH2 N]--Pro--Gln--Phe--NH2] (Ac-LA[X4]QF-NH2) was above 100 µM; that for `CC[C@H](C)[C@H](NC(=O)[C@@H]1CCCN1C[C@H](Cc1ccccc1)NC(=O)[C@H](CC(N)=O)NC(=O)[C@H](CC(C)C)NC(C)=O)C(=O)N[C@@H](CO)C(=O)O` [Ac--Leu--Asn--Phe-.psi.[CH2 N]--Pro--Ile--Ser--OH] (Ac-LN[X2]IS-OH) was 1 to 100 µM.
The same measure, in the same setting: the value for `CC[C@H](C)[C@H](NC(=O)[C@H](CCC(N)=O)NC(=O)[C@@H]1CCCN1C[C@H](Cc1ccccc1)NC(=O)[C@H](CC(N)=O)NC(=O)[C@H](Cc1ccccc1)NC(C)=O)C(N)=O` [Ac--Phe--Asn--Phe-.PSI.[CH2 N]--Pro--Gln--Ile--NH2] (Ac-FN[X2]QI-NH2) was 1 to 100 µM; that for `CC[C@H](C)[C@H](NC(=O)[C@H](CCC(N)=O)NC(=O)[C@@H]1CCCN1C[C@H](Cc1ccccc1)NC(=O)[C@H](CC(N)=O)NC(=O)[C@H](Cc1ccccc1)NC(=O)[C@H](CO)NC(C)=O)C(N)=O` [Ac--Ser--Phe--Asn--Phe-.PSI.[CH2 N]--Pro--Gln--Ile--NH2] (Ac-SFN[X2]QI-NH2) was 1 to 100 µM.
Take `CCCC[C@@H](CN[C@@H](CC1CCCCC1)C(=O)N[C@@H](CCC(N)=O)C(=O)N[C@@H](CCCNC(=N)N)C(N)=O)NC(=O)[C@@H](NC(=O)[C@@H](NC(C)=O)[C@@H](C)O)[C@@H](C)CC` [Ac--Thr--Ile--Nle-.PSI.[CH2 NH]--Cha--Gln--Arg--NH2]: the Ki on HIV protease [1] (setting [5]) is below 1 µM.
As for `CCCC[C@@H](CN[C@H](C(=O)N[C@@H](CCC(N)=O)C(=O)N[C@@H](CCCNC(=N)N)C(N)=O)[C@@H](C)CC)NC(=O)[C@@H](NC(=O)[C@@H](NC(C)=O)[C@@H](C)O)[C@@H](C)CC` [Ac--Thr--Ile--Nle-.PSI.[CH2 NH]--Ile--Gln--Arg--NH2], the Ki on HIV protease [1] (setting [5]) was below 1 µM.
For `CCCC[C@@H](CN[C@@H](CCCC)C(=O)N[C@@H](CCC(N)=O)C(=O)N[C@@H](CCCNC(=N)N)C(N)=O)NC(=O)[C@@H](NC(=O)[C@@H](NC(C)=O)[C@@H](C)O)[C@@H](C)CC` [Ac--Thr--Ile--Nle-.PSI.[CH2 NH]--Nle--Gln--Arg--NH2], the “toxicity as measured by cell count” value in data set [2] was “no apparent toxicity”.
For the compound `CCCC[C@@H](CN[C@@H](CCCC)C(=O)N[C@@H](CCC(N)=O)C(=O)N[C@H](CCCNC(=N)N)C(N)=O)NC(=O)[C@@H](NC(=O)[C@@H](NC(C)=O)[C@@H](C)O)[C@@H](C)CC` [Ac--Thr--Ile--Nle-.PSI.[CH2 NH]--Nle--Gln--D--Arg--NH2], on HIV protease [1] (setting [5]), the Ki lay in the range of 1 to 100 µM.
For the compound `CCCC[C@@H](CN[C@@H](CCCC)C(=O)N[C@@H](CCC(N)=O)C(N)=O)NC(=O)[C@@H](NC(=O)[C@@H](NC(C)=O)[C@@H](C)O)[C@@H](C)CC` [Ac--Thr--Ile--Nle-.PSI.[CH2 NH]--Nle--Gln--NH2], the Ki on HIV protease [1] (setting [5]) is 1 to 100 µM.
As to `CCCC[C@@H](CN[C@@H](CCCC)C(=O)N[C@@H](CCC(N)=O)C(=O)N[C@@H](CCC)C(N)=O)NC(=O)[C@@H](NC(=O)[C@@H](NC(C)=O)[C@@H](C)O)[C@@H](C)CC` [Ac--Thr--Ile--Nle-.PSI.[CH2 NH]--Nle--Gln--Nva--NH2], the Ki at HIV protease [1] (setting [5]) is 1 to 100 µM.
On the same count and under the same terms, as for `CCCC[C@@H](CN(C)[C@@H](CCCC)C(=O)N[C@@H](CCC(N)=O)C(=O)N[C@@H](CCCNC(=N)N)C(N)=O)NC(=O)[C@@H](NC(=O)[C@@H](NC(C)=O)[C@@H](C)O)[C@@H](C)CC` [Ac--Thr--Ile--Nle-.psi.[CH2 NH]--MeNle--Gln--Arg--NH2] (Ac-TI[X3]QR-NH2), the figure is above 100 µM.
As for `CC[C@H](C)[C@H](NC(=O)[C@@H](NC(C)=O)[C@@H](C)O)C(=O)N[C@H](CN[C@@H](CC(C)C)C(=O)N[C@@H](CCC(N)=O)C(=O)N[C@@H](CCCNC(=N)N)C(N)=O)CC(C)C` [Ac--Thr--lle--Leu-.PSI.[CH2 NH]--Leu--Gln--Arg--NH2], at HIV protease [1] (setting [6]), the Ki worked out at 0.734 µM.
With `CCCC[C@@H](CNC1(C(=O)N[C@@H](CCC(N)=O)C(=O)N[C@@H](CCCNC(=N)N)C(N)=O)CCCC1)NC(=O)[C@@H](NC(=O)[C@@H](NC(C)=O)[C@@H](C)O)[C@@H](C)CC` [Ac--Thr--lle--Nle-.PSI.[CH2 NH]--Cle--Gln--Arg--NH2], on HIV protease [1] (setting [5]), the inhibition constant Ki was above 100 µM.
In the case of `CCCC[C@@H](CN[C@@H](CC(C)C)C(=O)N[C@@H](CCC(N)=O)C(=O)N[C@@H](CCCNC(=N)N)C(N)=O)NC(=O)[C@@H](NC(=O)[C@@H](NC(C)=O)[C@@H](C)O)[C@@H](C)CC` [Ac--Thr--lle--Nle-.PSI.[CH2 NH]--Leu--Gln--Arg--NH2], the Ki at HIV protease [1] (setting [5]) is below 1 µM.
Turning to `CCCC[C@@H](CN[C@@H](Cc1ccccc1)C(=O)N[C@@H](CCC(N)=O)C(=O)N[C@@H](CCCNC(=N)N)C(N)=O)NC(=O)[C@@H](NC(=O)[C@@H](NC(C)=O)[C@@H](C)O)[C@@H](C)CC` [Ac--Thr--lle--Nle-.PSI.[CH2 NH]--Phe--Gln--Arg--NH2], the inhibition constant Ki on HIV protease [1] (setting [5]) is below 1 µM.
Take `CC(C)C[C@@H](CN1CCC[C@H]1C(=O)N[C@H](C(=O)N[C@@H](C)C(=O)O)C(C)C)NC(=O)[C@H](CC(N)=O)NC(=O)[C@H](CC(C)C)NC(=O)[C@@H](N)CO` [H2 N--Ser--Leu--Asn--Leu-.PSI.[CH2 N]--Pro--Val--Ala--OH] (H-SLN[LeuΨ(CH2N)Pro]VA-OH): the Ki on HIV protease [1] (setting [6]) worked out at 13.1 µM.
As to `CC[C@H](C)[C@H](NC(=O)[C@@H]1CCCN1C[C@H](Cc1ccccc1)NC(=O)[C@H](CC(N)=O)NC(=O)[C@H](CC(C)C)NC(=O)[C@@H](N)[C@@H](C)O)C(=O)N[C@@H](CO)C(=O)O` [H2 N--Thr--Leu--Asn--Phe-.PSI.[CH2 N]--Pro--Ile--Ser--OH] (H-TLN[X2]IS-OH), the Ki at HIV protease [1] (setting [5]) was in the range of 1 to 100 µM.
With Aba--Thr--Ile--Nle--PnF--Gln--Arg--NH2, the “Relative Rate” value on HIV protease [3] was determined as 1.46.
Still for that read-out and setting: the value for Ac--Thr--Ile--Nle--Hle--Gln--Arg--NH2 was 0.95.
For the compound “Ac-QNYPIV-NH2 [Ac--Gln--Asn--Tyr--Pro--Ile--Val--NH2]”, the “Relative Rate” value on HIV protease [3] turned out to be 0.04.
The term Vmax denotes the top rate of the reaction or transport when substrate is in excess. On to “Ac-TIMMQR-NH2 [Ac--Thr--Ile--Met--Met--Gln--Arg--NH2]”, for which the “Relative Rate” value on HIV protease [3] came to 1.00. For the same compound, the Vmax on HIV protease [3] (substrate of HIV protease) amounted to 725 nmol/min/mg.
On to QNY-PIV, for which the “cleavage by HIV protease” value at HIV protease [4] is given as “failed to be cleaved”.
Consider SQNY-PI, for which, on HIV protease [4], the “cleavage by HIV protease” value is reported as “failed to be cleaved”.
For the compound SQNY-PIV, the “cleavage rate relative to the octapeptide” value on HIV protease [4] (of the rate of VSQNYPIV) is listed as 90%.
The term Km denotes the substrate concentration at which the rate is half of its maximum. For VSQNYPIV, at HIV protease [4], the Km was 2.5 mM.
On to acetyl-QNY-PIV, for which the “cleavage by HIV protease” value at HIV protease [4] is listed as “failed to be cleaved”.
